Experimental findings from ChEMBL document CHEMBL4411322 (J Med Chem, 2019) are described below.

Broadly, the IC50 is the concentration at which inhibition is half-maximal.

The structures appear in SMILES notation. Calls of active or inactive are those of the source. The calls are words filed in the database; no cut-off is given here. Non-standard residues stand in square brackets, D forms with d. Residues, ends and D or L forms follow the SMILES beside them.

The target in one assay is Integrin alpha-V/beta-5 (Homo sapiens, UniProt P06756+P18084). Kind of assay: Inhibition of human vitronectin binding to human integrin alphavbeta5 receptor after 1 hr by solid-phase binding assay. The format is protein-complex assay.
Assay [1] has as its target Integrin alpha-IIb/beta-3 (Homo sapiens, UniProt P05106+P08514). Kind of assay: Inhibition of human fibrinogen binding to human platelet integrin alpha2b-beta3 receptor after 1 hr by solid-phase binding assay.
The next assay has as its target Integrin alpha-V/beta-6 (Homo sapiens, UniProt P06756+P18564). The assay is described as follows: Inhibition of LAP binding to human integrin alphavbeta6 receptor after 1 hr by solid-phase binding assay. It is filed as protein-complex assay. Conditions: read-out: IC50.
Assay [2] concerns the target T1, Integrin alpha-V/beta-8 (Homo sapiens, UniProt P06756+P26012). The assay is described as follows: Inhibition of LAP binding to human integrin alphavbeta8 receptor after 1 hr by solid-phase binding assay. The format is protein-complex assay. Conditions: read-out: IC50.
Target sequence in this assay (P06756 31-889 limits assumed): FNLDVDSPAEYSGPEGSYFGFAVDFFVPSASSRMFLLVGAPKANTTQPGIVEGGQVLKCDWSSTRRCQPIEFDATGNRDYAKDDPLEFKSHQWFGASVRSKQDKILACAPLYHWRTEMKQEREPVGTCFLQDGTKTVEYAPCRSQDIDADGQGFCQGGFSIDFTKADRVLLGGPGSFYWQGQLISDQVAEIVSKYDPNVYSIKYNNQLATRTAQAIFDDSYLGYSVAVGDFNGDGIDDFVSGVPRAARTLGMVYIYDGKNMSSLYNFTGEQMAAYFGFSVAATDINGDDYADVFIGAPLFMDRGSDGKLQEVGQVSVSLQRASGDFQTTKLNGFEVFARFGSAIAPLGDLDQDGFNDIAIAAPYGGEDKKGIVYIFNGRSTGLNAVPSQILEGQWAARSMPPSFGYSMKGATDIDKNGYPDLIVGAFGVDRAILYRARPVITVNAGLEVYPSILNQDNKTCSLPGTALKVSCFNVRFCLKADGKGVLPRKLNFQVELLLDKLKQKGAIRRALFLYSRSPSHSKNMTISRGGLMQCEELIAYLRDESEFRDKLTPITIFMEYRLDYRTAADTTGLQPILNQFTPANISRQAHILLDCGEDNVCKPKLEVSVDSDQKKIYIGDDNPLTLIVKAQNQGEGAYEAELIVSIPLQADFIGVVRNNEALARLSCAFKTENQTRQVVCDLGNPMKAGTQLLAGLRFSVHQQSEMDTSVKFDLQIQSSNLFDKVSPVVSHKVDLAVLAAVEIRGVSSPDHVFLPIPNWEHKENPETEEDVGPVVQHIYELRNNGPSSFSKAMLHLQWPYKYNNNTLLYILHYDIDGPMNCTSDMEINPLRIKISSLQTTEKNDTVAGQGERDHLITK
Target sequence in this assay (P06756 891-1048 limits assumed): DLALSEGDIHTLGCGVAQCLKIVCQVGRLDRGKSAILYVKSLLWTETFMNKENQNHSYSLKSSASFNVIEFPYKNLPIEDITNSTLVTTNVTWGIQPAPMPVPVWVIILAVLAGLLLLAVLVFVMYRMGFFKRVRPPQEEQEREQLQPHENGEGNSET
Target sequence in this assay (P26012 43-769 limits assumed): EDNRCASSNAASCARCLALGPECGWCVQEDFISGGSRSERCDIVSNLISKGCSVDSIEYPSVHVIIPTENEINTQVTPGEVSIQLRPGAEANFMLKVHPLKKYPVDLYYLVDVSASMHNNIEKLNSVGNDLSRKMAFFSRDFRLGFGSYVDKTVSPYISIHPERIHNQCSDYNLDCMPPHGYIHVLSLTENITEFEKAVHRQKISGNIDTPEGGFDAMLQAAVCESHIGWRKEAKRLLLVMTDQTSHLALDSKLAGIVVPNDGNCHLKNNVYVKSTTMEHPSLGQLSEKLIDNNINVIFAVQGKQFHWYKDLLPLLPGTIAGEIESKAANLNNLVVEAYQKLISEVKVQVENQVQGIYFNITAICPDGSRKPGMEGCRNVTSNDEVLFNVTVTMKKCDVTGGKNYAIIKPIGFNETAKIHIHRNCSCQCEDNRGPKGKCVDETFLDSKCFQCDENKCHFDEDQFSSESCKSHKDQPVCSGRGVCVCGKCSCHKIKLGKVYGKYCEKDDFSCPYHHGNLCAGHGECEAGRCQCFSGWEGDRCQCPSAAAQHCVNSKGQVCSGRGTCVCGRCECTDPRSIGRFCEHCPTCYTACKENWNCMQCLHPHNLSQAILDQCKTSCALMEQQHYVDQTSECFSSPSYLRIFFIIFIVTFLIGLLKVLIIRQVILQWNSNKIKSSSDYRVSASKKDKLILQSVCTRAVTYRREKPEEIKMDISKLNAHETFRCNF
The species entered for the next assay is Homo sapiens. The assay is described as follows: Selectivity ratio of IC50 for human integrin alphavbeta6 receptor to IC50 for human integrin alphavbeta8 receptor.
Assay [3] has as its target T1, Integrin alpha-V/beta-8. Kind of assay: Binding affinity to alphavbeta8 in human REC cells assessed as fluorescence intensity at 10 uM after 1 hr using BDP FL-labeled compound by immunocytochemical analysis. It is filed as cell-based.
The target in assay [4] is T1, Integrin alpha-V/beta-8. Kind of assay: Binding affinity to alphavbeta8 in human BHY cells assessed as fluorescence intensity at 10 uM after 1 hr using BDP FL-labeled compound by immunocytochemical analysis. It is filed as cell-based.
For assay [5], the target named is T1, Integrin alpha-V/beta-8. The assay is described as follows: Binding affinity to alphavbeta8 in human HN cells assessed as fluorescence intensity at 10 uM after 1 hr using BDP FL-labeled compound by immunocytochemical analysis. The format is cell-based.
In the next assay the target is Integrin alpha-V/beta-3 (Homo sapiens, UniProt P05106+P06756). Kind of assay: Inhibition of human vitronectin binding to human integrin alphavbeta3 receptor after 1 hr by solid-phase binding assay. The format is protein-complex assay.
Chain of Integrin alpha-V/beta-3 (P05106 27-788 limits assumed): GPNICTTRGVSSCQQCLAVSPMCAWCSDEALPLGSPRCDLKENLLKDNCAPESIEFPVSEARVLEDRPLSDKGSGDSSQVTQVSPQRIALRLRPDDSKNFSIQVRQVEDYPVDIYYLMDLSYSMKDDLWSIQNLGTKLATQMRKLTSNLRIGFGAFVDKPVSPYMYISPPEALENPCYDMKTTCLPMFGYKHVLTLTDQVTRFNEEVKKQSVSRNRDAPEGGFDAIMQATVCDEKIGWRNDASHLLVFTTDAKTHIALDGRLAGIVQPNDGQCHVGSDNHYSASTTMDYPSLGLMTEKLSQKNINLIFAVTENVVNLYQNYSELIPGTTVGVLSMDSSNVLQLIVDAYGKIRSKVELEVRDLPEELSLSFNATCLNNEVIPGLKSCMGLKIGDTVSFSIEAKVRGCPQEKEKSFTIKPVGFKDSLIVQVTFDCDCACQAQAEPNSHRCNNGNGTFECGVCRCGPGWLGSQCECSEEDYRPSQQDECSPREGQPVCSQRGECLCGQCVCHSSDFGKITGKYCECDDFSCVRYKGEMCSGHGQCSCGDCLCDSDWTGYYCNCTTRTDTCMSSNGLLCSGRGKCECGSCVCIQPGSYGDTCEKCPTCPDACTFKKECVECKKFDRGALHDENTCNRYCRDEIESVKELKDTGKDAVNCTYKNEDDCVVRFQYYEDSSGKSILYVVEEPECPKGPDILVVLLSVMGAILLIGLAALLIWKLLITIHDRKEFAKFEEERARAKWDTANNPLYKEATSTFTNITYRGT
Chain of Integrin alpha-V/beta-3 (P06756 31-889 limits assumed): as the sequence (P06756 31-889 limits assumed) above
Chain of Integrin alpha-V/beta-3 (P06756 891-1048 limits assumed): as the sequence (P06756 891-1048 limits assumed) above
The target of another assay is Integrin alpha-5/beta-1 (Homo sapiens, UniProt P05556+P08648). The assay is described as follows: Inhibition of human fibronectin binding to human integrin alpha5beta1 receptor after 1 hr by solid-phase binding assay. It is filed as protein-complex assay.

Chain of Integrin alpha-IIb/beta-3 (P05106 27-788 limits assumed): as the sequence (P05106 27-788 limits assumed) above
Chain of Integrin alpha-IIb/beta-3 (P08514 32-887 limits assumed): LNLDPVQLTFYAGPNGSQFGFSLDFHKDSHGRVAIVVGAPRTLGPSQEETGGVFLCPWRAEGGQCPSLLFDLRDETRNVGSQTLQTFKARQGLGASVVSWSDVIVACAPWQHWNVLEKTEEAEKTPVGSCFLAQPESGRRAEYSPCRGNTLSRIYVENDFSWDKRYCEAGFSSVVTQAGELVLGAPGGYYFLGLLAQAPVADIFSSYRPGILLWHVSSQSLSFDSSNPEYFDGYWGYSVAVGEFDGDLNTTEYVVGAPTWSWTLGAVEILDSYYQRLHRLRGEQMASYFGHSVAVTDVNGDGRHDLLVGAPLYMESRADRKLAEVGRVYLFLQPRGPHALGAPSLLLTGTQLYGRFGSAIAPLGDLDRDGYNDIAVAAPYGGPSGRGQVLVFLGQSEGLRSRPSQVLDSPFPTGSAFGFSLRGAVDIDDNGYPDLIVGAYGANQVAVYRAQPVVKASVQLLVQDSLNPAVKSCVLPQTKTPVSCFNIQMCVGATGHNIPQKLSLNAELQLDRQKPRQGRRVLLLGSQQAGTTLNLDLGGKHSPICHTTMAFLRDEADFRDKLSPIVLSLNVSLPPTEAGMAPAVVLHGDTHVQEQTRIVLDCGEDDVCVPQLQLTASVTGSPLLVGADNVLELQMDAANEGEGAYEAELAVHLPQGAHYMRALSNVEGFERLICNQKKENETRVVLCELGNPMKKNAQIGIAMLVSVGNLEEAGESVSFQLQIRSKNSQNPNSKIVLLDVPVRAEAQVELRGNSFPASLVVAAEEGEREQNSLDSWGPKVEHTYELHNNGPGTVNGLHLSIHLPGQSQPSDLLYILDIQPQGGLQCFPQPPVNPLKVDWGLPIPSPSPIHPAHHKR
Chain of Integrin alpha-IIb/beta-3 (P08514 891-1039 limits assumed): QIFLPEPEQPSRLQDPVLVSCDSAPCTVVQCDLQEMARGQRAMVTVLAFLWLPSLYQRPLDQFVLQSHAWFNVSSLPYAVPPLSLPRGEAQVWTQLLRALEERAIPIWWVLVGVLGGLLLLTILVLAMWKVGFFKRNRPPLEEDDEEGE
Chain of Integrin alpha-V/beta-6 (P06756 31-889 limits assumed): as the sequence (P06756 31-889 limits assumed) above
Chain of Integrin alpha-V/beta-6 (P06756 891-1048 limits assumed): as the sequence (P06756 891-1048 limits assumed) above
Chain of Integrin alpha-V/beta-6 (P18564 22-788 limits assumed): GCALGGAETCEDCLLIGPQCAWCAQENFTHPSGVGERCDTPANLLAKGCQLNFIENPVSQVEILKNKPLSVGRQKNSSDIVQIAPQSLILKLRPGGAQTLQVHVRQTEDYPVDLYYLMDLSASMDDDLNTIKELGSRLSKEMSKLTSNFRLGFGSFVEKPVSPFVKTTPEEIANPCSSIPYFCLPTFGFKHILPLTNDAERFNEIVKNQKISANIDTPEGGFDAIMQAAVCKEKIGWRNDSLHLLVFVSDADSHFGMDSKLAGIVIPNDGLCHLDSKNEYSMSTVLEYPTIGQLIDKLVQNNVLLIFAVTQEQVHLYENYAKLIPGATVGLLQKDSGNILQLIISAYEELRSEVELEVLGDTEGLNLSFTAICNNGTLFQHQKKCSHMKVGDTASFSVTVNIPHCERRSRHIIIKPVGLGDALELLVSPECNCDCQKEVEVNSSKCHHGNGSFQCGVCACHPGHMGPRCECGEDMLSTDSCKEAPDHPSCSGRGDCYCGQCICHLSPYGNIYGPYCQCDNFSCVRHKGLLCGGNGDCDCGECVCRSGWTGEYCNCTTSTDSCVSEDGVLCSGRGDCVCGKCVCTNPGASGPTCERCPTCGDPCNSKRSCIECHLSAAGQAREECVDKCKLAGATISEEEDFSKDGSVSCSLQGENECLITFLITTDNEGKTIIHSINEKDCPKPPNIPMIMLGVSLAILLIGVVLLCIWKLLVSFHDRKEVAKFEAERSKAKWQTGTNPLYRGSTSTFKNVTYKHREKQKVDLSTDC

Turning to `CC(C)C[C@@H]1NC(=O)[C@H](CC(=O)O)NC(=O)CNC(=O)[C@H](CCCNC(=N)N)NC(=O)[C@H](Cc2ccccc2)NC(=O)[C@H](CCCCN)N(C)C(=O)[C@H]2CCCN2C(=O)[C@H](Cc2ccccc2)NC(=O)[C@H](C)NC1=O`, the IC50 (on Integrin alpha-V/beta-5; in assay [1]) was more than 1000 nM throughout.
Consider `CC[C@H](C)[C@@H]1NC(=O)[C@H](CC(=O)O)NC(=O)CNC(=O)[C@H](CCCNC(=N)N)NC(=O)[C@H](Cc2ccccc2)NC(=O)[C@H](C)NC(=O)[C@@H]2CCCN2C(=O)[C@H]2CCCN2C1=O`, for which the IC50 on Integrin alpha-V/beta-6 came to 707 nM; on Integrin alpha-V/beta-8 [2], 169 nM. The Ratio IC50 in the assay listed under Homo sapiens is 4.2.
On to `CC1=CC(C)=[N+]2C1=Cc1ccc(CCC(=O)NCCCCCC(=O)NCCCC[C@@H]3NC(=O)[C@@H](Cc4ccccc4)NC(=O)[C@H](CC(=O)O)NC(=O)CCNC(=O)[C@H](CCCNC(=N)N)NC3=O)n1[B-]2(F)F`, for which the outcome on Integrin alpha-V/beta-8 [3], at Integrin alpha-V/beta-8 [4] and at Integrin alpha-V/beta-8 [5] was inactive.
Regarding `CC(C)C[C@@H]1NC(=O)CNC(=O)[C@@H]2CCCN2C(=O)[C@H]2CCCN2C(=O)[C@H](CC(C)C)NC(=O)[C@H](CC(=O)O)NC(=O)CNC(=O)[C@H](CCCNC(=N)N)NC1=O` (cyclo(RGDL[dP]PGL)), the IC50 on Integrin alpha-V/beta-6 is 160 nM; at Integrin alpha-V/beta-8 [2] it was 4.5 nM; at Integrin alpha-V/beta-3 it was more than 1000 nM; at Integrin alpha-V/beta-5, more than 1000 nM; at Integrin alpha-5/beta-1 it was more than 1000 nM; in [1], more than 1000 nM. For the same compound, in the assay filed under Homo sapiens, the Ratio IC50 stood at 36.
As for `CC(C)C[C@@H]1NC(=O)[C@H](CC(=O)O)NC(=O)[C@H]([C@@H](C)O)NC(=O)[C@H](CCCNC(=N)N)NC(=O)[C@H](Cc2ccccc2)NC(=O)[C@H](C)NC(=O)[C@@H]2CCCN2C(=O)[C@H]2CCCN2C1=O`, the IC50 came to 256 nM on Integrin alpha-V/beta-6 and 4.3 nM at Integrin alpha-V/beta-8 [2]. Further, in the assay listed under Homo sapiens, the Ratio IC50 is 60.
Regarding `CC(C)C[C@@H]1NC(=O)[C@H](CC(=O)O)NC(=O)CNC(=O)[C@H](CCCNC(=N)N)NC(=O)CNC(=O)[C@H](C)NC(=O)[C@@H]2CCCN2C(=O)[C@H]2CCCN2C1=O`, the IC50 at Integrin alpha-V/beta-6 came to 42.4 nM; at Integrin alpha-V/beta-8 [2], 15.9 nM. Moreover, in the assay filed under Homo sapiens, the Ratio IC50 amounted to 2.7.
The corresponding values for `CC(C)C[C@@H]1NC(=O)[C@H](CC(=O)O)NC(=O)CNC(=O)[C@H](CCCNC(=N)N)NC(=O)[C@H](C)NC(=O)[C@H](C)NC(=O)[C@H](C)NC(=O)[C@H](C)NC(=O)[C@@H]2CCCN2C(=O)[C@H]2CCCN2C1=O` are 274 nM, 166 nM and 1.7.
On to `CC(=O)NCCCC[C@@H]1C(=O)N2CCC[C@H]2C(=O)NCC(=O)N[C@@H](CC(C)C)C(=O)N[C@@H](CCCNC(=N)N)C(=O)NCC(=O)N[C@@H](CC(=O)O)C(=O)N[C@@H](CC(C)C)C(=O)N1C`, for which the results for the half-inhibitory concentration (IC50) on Integrin alpha-V/beta-6 and on Integrin alpha-V/beta-8 [2] were 215 nM and 57 nM, respectively. For the same compound, the Ratio IC50 in the assay listed under Homo sapiens came out at 3.8.
On to `CC(C)C[C@@H]1NC(=O)[C@H](C)NC(=O)[C@H](Cc2ccccc2)N(C)C(=O)[C@H]2CCCN2C(=O)[C@H](CC(C)C)NC(=O)[C@H](CC(=O)O)NC(=O)CNC(=O)[C@H](CCCNC(=N)N)NC1=O`, for which the results for the IC50 on Integrin alpha-V/beta-6 and on Integrin alpha-V/beta-8 [2] were 74 nM and 25 nM, respectively. Besides, the Ratio IC50 in the assay filed under Homo sapiens came out at 3.
For `CCCCCCNC1C[C@H]2C(=O)NCC(=O)N[C@@H](CC(C)C)C(=O)N[C@@H](CCCNC(=N)N)C(=O)NCC(=O)N[C@@H](CC(=O)O)C(=O)N[C@@H](CC(C)C)C(=O)N3CCC[C@@H]3C(=O)N2C1` (stereo partly specified) the same measures were 204 nM, 12.8 nM and 16.
Consider `CC(C)C[C@@H]1NC(=O)[C@H](C)NC(=O)[C@H](C)NC(=O)[C@@H]2CCCN2C(=O)[C@H]2CCCN2C(=O)[C@H](CC(C)C)NC(=O)[C@H](CC(=O)O)NC(=O)[C@H]([C@@H](C)O)NC(=O)[C@H](CCCNC(=N)N)NC(=O)[C@H](C)NC1=O`, for which the IC50 on Integrin alpha-V/beta-6 amounted to 720 nM; at Integrin alpha-V/beta-8 [2], 127 nM. Moreover, the Ratio IC50 in the assay filed under Homo sapiens is 5.7.
`CC(C)C[C@@H]1NC(=O)[C@H](CC(=O)O)NC(=O)CNC(=O)[C@H](CCCNC(=N)N)NC(=O)[C@@H](C)NC(=O)[C@H](C)NC(=O)[C@@H]2CCCN2C(=O)[C@H]2CCCN2C1=O`: the values for the IC50 on Integrin alpha-V/beta-6 and at Integrin alpha-V/beta-8 [2] were 112 nM and 59.4 nM, respectively. Moreover, in the assay filed under Homo sapiens, the Ratio IC50 stood at 1.9.
Turning to `CCNC(=N)NCCC[C@@H]1NC(=O)[C@H](CC(C)C)NC(=O)CNC(=O)[C@@H]2CCCN2C(=O)[C@H]2CCCN2C(=O)[C@H](CC(C)C)NC(=O)[C@H](CC(=O)O)NC(=O)CNC1=O`, the values for the IC50 at Integrin alpha-V/beta-6 and on Integrin alpha-V/beta-8 [2] were 769 nM and 38 nM, respectively. Further, in the assay listed under Homo sapiens, the Ratio IC50 came out at 20.
Take `CC(C)C[C@@H]1NC(=O)[C@H](CC(=O)O)NC(=O)CNC(=O)[C@H](CCCNC(=N)N)NC(=O)[C@H](Cc2c[nH]c3ccccc23)NC(=O)[C@H](C)NC(=O)[C@@H]2CCCN2C(=O)[C@H]2CCCN2C1=O`: the IC50 was found to be 73 nM on Integrin alpha-V/beta-6 and 3.73 nM on Integrin alpha-V/beta-8 [2]. Also, the Ratio IC50 in the assay listed under Homo sapiens turned out to be 20.1.
The corresponding values for `CC(C)C[C@@H]1NC(=O)[C@H](CC(=O)O)NC(=O)CNC(=O)[C@H](CCCNC(=N)N)NC(=O)[C@H](C)NC(=O)[C@H](C)NC(=O)[C@@H]2CCCN2C(=O)[C@H]2CCCN2C1=O` are 114 nM, 8.1 nM and 14.1.
For `CC(C)C[C@@H]1NC(=O)[C@H](CC(=O)O)NC(=O)CNC(=O)[C@H](CCCNC(=N)N)NC(=O)[C@H](Cc2ccccc2)NC(=O)[C@H](C)NC(=O)[C@@H]2CCCN2C(=O)[C@H]2CCCN2C1=O` the same measures were 81.3 nM, 1.83 nM and 44.1.
Consider `CC(C)C[C@@H]1NC(=O)[C@H](CC(=O)O)NC(=O)CNC(=O)[C@H](CCCNC(=N)N)NC(=O)[C@H](C)NC(=O)[C@@H]2CCCN2C(=O)[C@H]2CCCN2C(=O)[C@H](Cc2ccccc2)NC(=O)[C@H](C)NC1=O` (cyclo(ARGDLAF[dP]P)), for which the IC50 (at Integrin alpha-V/beta-5; in assay [1]) was more than 1000 nM throughout.
`CCCC[C@@H]1NC(=O)[C@H](CC(=O)O)NC(=O)CNC(=O)[C@H](CCCNC(=N)N)NC(=O)[C@H](Cc2ccccc2)NC(=O)[C@H](C)NC(=O)[C@@H]2CCCN2C(=O)[C@H]2CCCN2C1=O`: the values for the 50% inhibitory concentration (IC50) on Integrin alpha-V/beta-6 and on Integrin alpha-V/beta-8 [2] were 142 nM and 38.1 nM, respectively. In the assay listed under Homo sapiens, the Ratio IC50 stood at 3.7.
For `CC(C)C[C@@H]1NC(=O)[C@H](C)NC(=O)[C@H](C(C)C)N(C)C(=O)[C@H]2CCCN2C(=O)[C@H](CC(C)C)NC(=O)[C@H](CC(=O)O)NC(=O)CNC(=O)[C@H](CCCNC(=N)N)NC1=O` the same measures were 70 nM, 44 nM and 1.6.
The corresponding values for `CC(C)C[C@@H]1NC(=O)[C@H](CC(=O)O)NC(=O)CNC(=O)[C@H](CCCNC(=N)N)NC(=O)[C@H](c2ccccc2)NC(=O)[C@H](C)NC(=O)[C@@H]2CCCN2C(=O)[C@H]2CCCN2C1=O` are 29.6 nM, 6.4 nM and 4.6.
For `CC(C)C[C@@H]1NC(=O)[C@H](C)NC(=O)[C@@H]2CCCN2C(=O)[C@@H](CCCCN)N(C)C(=O)[C@H](CC(C)C)NC(=O)[C@H](CC(=O)O)NC(=O)CNC(=O)[C@H](CCCNC(=N)N)NC1=O`, the IC50 on Integrin alpha-V/beta-6 was determined as 39 nM; at Integrin alpha-V/beta-8 [2], 12.1 nM. The Ratio IC50 in the assay filed under Homo sapiens worked out at 3.2.
Turning to `CC(C)C[C@@H]1NC(=O)[C@@H]2CCCN2C(=O)[C@H]2CCCN2C(=O)[C@H](CC(C)C)NC(=O)[C@H](CC(=O)O)NC(=O)CNC(=O)[C@H](CCCNC(=N)N)NC(=O)[C@H](C)NC(=O)[C@H](C)NC(=O)[C@H](C)NC1=O`, the IC50 on Integrin alpha-V/beta-6 was found to be 889 nM; on Integrin alpha-V/beta-8 [2], 631 nM. Further, the Ratio IC50 in the assay listed under Homo sapiens was found to be 1.4.
For `CC(C)C[C@@H]1NC(=O)[C@@H]2CCCN2C(=O)[C@H]2CCCN2C(=O)[C@H](CC(C)C)NC(=O)[C@H](CC(=O)O)NC(=O)CNC(=O)[C@H](CCCNC(=N)N)NC(=O)[C@H](C)NC1=O` the same measures were 420 nM, 114 nM and 3.7.
